Laboratory results from patent US8334364B2, “High-molecular weight derivative of nucleic acid antimetabolite” (priority 2006, dated 2012).
Counter-ions that a name gives are not always drawn.

What was measured:
[1] = system: mouse colon cancer, Colon26; test: Antitumor effect against tumor-bearing mouse (1); type: in vivo; settings: once intravenously, 7th day after initiation of administration, average ± SD, volume on day of initiation = 1.0
Description: Tumor of mouse colon cancer, Colon26, maintained by serial subcutaneous subculture in mice, was minced into about 2-mm square blocks, and the blocks were transplanted subcutaneously on the dorsal part of a mouse using a trocar. On the 7th day after tumor transplantation, the compound of Example 1 (indicated as Compound 1 in Table 2) and the compound of Example 2 (indicated as Compound 2 in Table 2), respectively dissolved in physiological saline, and gemcitabine hydrochloride as a control drug dissolved in a 5% glucose injection solution were respectively administered once intravenously at the doses indicated in Table 2. The tumor volumes on the day of initiation of administration and on the 7th day after the initiation of administration were calculated by the following equation, and the relative tumor volumes on the day of initiation of administration and on the 7th day after the initiation of administration were determined.

[2] = system: mouse colon cancer, Colon26; test: Antitumor effect against tumor-bearing mouse (2); type: in vivo; settings: once intravenously, 8th day after initiation of administration, average ± SD, volume on day of initiation = 1.0
Description: Tumor of mouse colon cancer, Colon26, maintained by serial subcutaneous subculture in mice, was minced into about 2-mm square blocks, and the blocks were transplanted subcutaneously on the dorsal part of a mouse. On the 7th day after tumor transplantation, the compound of Example 3 (indicated as Compound 3 in Table 3) and the compound of Example 4 (indicated as Compound 4 in Table 3), respectively dissolved in physiological saline, and gemcitabine hydrochloride as a control drug dissolved in a 5% glucose injection solution were respectively administered once intravenously at the doses indicated in Table 3. The tumor volumes on the day of initiation of administration and on the 8th day after the initiation of administration were calculated in the same manner as in Test Example 3, and the relative tumor volumes on the day of initiation of administration and on the 8th day after the initiation of administration were determined.

[3] = dose 200 mg/kg in terms of gemcitabine hydrochloride

## Nc1ccn([C@@H]2O[C@H](CO)[C@@H](O)C2(F)F)c(=O)n1 [Control drug, gemcitabine hydrochloride]
[1]; dose 100 mg/kg in terms of gemcitabine hydrochloride
  Relative tumor volume: 3.9 ± 0.5
[1]; [3]
  Relative tumor volume: 3.4 ± 0.6
[2]; dose 40 mg/kg in terms of gemcitabine hydrochloride
  Relative tumor volume: 5.3 ± 1.1
[2]; [3]
  Relative tumor volume: 4.8 ± 1.7
